According to patent US9315520B2, “2-amino-6-methyl-4,4a,5,6-tetrahydropyrano[3,4-d][1,3]thiazin-8a(8H)-yl-1,3-thiazol-4-yl amides” (Pfizer Inc., priority 2014, dated 2016):
Like-named read-outs stand apart in the source and are kept apart here.

What was measured:
[1] = molecular target: P-glycoprotein (MDR1-transfected MDCK cell line) (Homo sapiens (Human), UniProt P08183); assay: Pgp Liability MDR1 Er; format: in vitro ADME; details: MDR1-transfected MDCK cell line; ratio of permeability, Papp BA/AB
Source text: MDR1 Efflux Ratio (MDR Er) from MDR1-transfected MDCK line cell line represents the ratio of permeability, Papp BA/AB. Procedure utilized from (Feng, B.; Mills, J. B.; Davidson, R. E.; Mireles, R. J.; Janiszewski, J. S.; Troutman, M. D.; de Morais, S. M. In vitro P-glycoprotein assays to predict the in vivo interactions of P-glycoprotein with drugs in the central nervous system. Drug Metab. Dispos. 2008, 36, 268-275.

[2] = pKa; format: physicochemical
[3] = Aniline structural alert
[4] = molecular target: BACE1 (Homo sapiens (Human), UniProt P56817); assay: BACE1 Cell-Free Assay (fluorescence polarization); format: biochemical
[5] = molecular target: CYP2D6 (Homo sapiens (Human), UniProt P10635); assay: General Multi-Point Cocktail DDI IC50 Assay
Method: General Multi-Point Cocktail DDI IC50 Assay Conditions:
The incubation volume is 0.1 mL, utilizing a 384-well plate format. […] Substrate concentrations are near Km values that had been previously determined and incubation times are selected based on determinations of reaction velocity linearity. […] Samples are directly injected on an HPLC/MS/MS system. A Biomek FX workstation is used for liquid handling and sample incubation.

[6] = HLM Clint (clearance in human liver microsomes); format: in vitro ADME
[7] = molecular target: hERG channel (Homo sapiens (Human), UniProt Q12809); assay: hERG Patch Clamp Assay; format: cell-based; details: CHO cell transfected with hERG gene, automated Qpatch HT system
Method: After a ˜30 minute recovery period, experiments were initiated.
hERG Potassium Channel Current Recordings and Data Analysis:
The intracellular recording saline was composed of (in […]): 70 KF, 60 KCl, 15 NaCl, 5 EGTA, 5 HEPES, and adjusted to pH 7.2±0.1 with KOH. […] Test pulses were delivered at a frequency of 0.25 Hz. Up to 4 different concentrations were studied on each cell, each exposure lasting 5 minutes or until steady-state effects were observed. […] Using Sophion Qpatch Assay Software, the amplitude of the peak outward hERG current upon repolarizing ramp was measured. Current amplitude was determined by taking the average of the last 5 current peaks under each treatment condition. […] When possible, a concentration-response curve was plotted and the data were fitted using Qpatch software to determine an IC50. The P<0.05 was considered statistically significant.

[8] = system: sAPPβ, the primary cleavage product of BACE1, in H4 human neuroglioma cells over-expressing the wild-type human APP695; assay: sAPPβ Whole-Cell Assay (WCA); format: cell-based; details: 18 h
Method: sAPPβ Whole-Cell Assay (WCA):
sAPPβ, the primary cleavage product of BACE1, was determined in H4 human neuroglioma cells over-expressing the wild-type human APP695. […] The colorimetric reaction was read by an EnVision (PerkinElmer) plate-reader.

[9] = Measurement determined at Analyza
[10] = Table 4, read-out: BACE1 Cell Free IC50
[11] = geometric mean of 2-4 determinations unless otherwise indicated (b: ≧5; c: single determination), read-out: BACE1 Cell-free Assay IC50

Chain of BACE1 (P56817 46-457): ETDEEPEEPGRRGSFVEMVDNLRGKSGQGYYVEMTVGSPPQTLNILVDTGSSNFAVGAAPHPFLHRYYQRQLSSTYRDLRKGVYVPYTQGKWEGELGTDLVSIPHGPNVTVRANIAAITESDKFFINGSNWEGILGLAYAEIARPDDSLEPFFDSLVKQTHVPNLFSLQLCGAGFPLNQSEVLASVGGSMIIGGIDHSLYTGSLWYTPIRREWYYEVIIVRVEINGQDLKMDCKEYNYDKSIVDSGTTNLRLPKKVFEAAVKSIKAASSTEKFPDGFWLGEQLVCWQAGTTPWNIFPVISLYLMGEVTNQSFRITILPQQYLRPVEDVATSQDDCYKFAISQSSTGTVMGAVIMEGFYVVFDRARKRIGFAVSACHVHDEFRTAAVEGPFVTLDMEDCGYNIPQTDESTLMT
Chain of P-glycoprotein (MDR1-transfected MDCK cell line) (P08183 whole entry): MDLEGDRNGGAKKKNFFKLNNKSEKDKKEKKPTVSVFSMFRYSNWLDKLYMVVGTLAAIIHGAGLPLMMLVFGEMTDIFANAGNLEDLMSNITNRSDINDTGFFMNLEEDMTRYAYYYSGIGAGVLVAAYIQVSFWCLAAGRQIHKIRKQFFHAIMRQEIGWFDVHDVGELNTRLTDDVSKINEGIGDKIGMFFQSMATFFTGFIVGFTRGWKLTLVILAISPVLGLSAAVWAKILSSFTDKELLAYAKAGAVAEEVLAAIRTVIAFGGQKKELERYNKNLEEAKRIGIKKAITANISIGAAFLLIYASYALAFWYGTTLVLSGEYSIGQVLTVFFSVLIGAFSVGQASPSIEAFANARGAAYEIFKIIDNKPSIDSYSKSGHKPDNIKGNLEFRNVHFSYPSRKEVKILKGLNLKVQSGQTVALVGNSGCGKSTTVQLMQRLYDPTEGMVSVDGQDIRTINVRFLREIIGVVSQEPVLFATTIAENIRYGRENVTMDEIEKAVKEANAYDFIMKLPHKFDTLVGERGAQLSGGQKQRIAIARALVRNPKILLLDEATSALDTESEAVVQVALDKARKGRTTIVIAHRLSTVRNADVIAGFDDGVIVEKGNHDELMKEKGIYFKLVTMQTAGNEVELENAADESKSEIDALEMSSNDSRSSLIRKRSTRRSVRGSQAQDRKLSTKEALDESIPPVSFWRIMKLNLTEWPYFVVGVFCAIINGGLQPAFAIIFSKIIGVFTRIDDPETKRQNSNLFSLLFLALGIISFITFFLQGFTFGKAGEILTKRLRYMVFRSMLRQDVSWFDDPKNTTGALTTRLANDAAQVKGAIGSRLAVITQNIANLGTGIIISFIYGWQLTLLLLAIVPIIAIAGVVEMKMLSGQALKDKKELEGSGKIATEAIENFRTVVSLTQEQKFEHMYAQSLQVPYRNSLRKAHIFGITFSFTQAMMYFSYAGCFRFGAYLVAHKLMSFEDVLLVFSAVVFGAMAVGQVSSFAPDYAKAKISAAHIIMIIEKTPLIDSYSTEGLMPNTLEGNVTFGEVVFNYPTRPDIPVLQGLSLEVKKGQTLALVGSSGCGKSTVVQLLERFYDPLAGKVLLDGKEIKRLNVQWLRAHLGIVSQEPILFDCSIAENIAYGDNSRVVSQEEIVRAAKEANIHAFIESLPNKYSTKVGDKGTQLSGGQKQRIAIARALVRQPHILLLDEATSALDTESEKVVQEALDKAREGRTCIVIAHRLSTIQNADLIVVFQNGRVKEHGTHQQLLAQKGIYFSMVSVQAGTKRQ
Chain of CYP2D6 (P10635 whole entry): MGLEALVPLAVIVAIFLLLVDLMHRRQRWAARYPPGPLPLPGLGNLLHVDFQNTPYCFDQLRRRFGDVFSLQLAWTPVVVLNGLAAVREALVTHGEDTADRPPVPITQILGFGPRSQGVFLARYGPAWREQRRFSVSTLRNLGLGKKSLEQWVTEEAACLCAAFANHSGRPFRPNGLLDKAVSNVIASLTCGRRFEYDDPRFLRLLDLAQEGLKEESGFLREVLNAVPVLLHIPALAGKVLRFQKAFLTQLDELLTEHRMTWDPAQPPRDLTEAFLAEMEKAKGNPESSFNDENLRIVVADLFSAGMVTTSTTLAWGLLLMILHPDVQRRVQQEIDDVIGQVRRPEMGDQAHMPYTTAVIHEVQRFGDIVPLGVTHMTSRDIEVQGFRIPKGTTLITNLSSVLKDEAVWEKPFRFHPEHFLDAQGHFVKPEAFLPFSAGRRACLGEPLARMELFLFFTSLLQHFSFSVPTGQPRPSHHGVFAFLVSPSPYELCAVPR
Chain of hERG channel (Q12809 whole entry): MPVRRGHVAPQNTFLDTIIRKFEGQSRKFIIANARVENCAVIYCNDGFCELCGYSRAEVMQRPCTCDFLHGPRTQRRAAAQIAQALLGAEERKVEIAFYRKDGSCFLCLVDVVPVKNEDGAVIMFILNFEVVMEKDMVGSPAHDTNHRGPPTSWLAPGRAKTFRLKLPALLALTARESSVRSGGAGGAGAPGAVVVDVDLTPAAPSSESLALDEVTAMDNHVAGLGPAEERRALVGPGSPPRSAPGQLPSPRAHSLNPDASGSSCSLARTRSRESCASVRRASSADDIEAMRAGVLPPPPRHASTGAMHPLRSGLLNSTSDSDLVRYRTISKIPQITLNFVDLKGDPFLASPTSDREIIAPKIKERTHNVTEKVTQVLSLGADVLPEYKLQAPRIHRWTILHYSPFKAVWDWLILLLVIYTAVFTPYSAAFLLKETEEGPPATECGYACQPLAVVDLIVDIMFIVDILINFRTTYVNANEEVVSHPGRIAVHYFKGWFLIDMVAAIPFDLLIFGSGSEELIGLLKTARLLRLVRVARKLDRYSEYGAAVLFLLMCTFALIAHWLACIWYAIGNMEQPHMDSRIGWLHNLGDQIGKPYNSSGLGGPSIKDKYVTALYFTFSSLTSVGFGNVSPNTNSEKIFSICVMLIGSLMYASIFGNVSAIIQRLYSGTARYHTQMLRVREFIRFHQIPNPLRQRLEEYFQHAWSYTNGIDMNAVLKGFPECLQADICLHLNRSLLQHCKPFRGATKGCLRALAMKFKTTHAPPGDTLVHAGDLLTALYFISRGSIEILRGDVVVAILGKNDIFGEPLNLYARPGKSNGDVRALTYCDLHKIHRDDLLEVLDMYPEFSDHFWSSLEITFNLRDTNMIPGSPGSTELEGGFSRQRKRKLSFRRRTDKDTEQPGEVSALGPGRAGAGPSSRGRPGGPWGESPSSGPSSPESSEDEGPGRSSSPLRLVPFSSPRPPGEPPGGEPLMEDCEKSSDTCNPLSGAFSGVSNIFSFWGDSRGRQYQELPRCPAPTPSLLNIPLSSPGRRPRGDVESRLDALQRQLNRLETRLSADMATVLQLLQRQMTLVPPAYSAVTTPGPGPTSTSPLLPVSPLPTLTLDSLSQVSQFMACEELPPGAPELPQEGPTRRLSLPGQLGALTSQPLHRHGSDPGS

SMILES: C[C@H]1C[C@H]2CSC(N)=N[C@@]2(c2nc(NC(=O)c3ccc(OC(F)F)cn3)cs2)CO1 [Comparator 1]
- Pgp liability MDR1 Er [1]: 7.1
- pKa [2, 9]: 7.0
- Aniline Structural Alert [3]: No

SMILES: C[C@H]1C[C@H]2CSC(N)=N[C@@]2(c2nc(NC(=O)c3ccc(OC(F)F)cn3)ccc2F)CO1 [Comparator 2]
- IC50 [4, 10]: 43 nM
- IC50 ([5]; read-out: CYP2D6 IC50): < 30 nM
- HLM CLint [6]: 22.9 mL/min/kg^
- Pgp liability MDR1 Er [1]: 14.2
- pKa [2]: 8.7
- pKa [2, 9]: 8.7
- Aniline Structural Alert [3]: No

SMILES: C[C@H]1C[C@H]2CSC(N)=N[C@@]2(c2nc(NC(=O)c3ccc(OC(F)F)cn3)ccc2F)CO1 [Comparator 3, reference compound]
- IC50 [4, 10]: 3 nM
- HLM CLint [6]: 19.8 mL/min/kg^
- Pgp liability MDR1 Er [1]: 5.1
- IC50 [7]: 400 nM
- pKa [2, 9]: 8.3
- Aniline Structural Alert [3]: Yes

SMILES: NC1=N[C@@]2(c3cc(NC(=O)c4ccc(OC(F)F)cn4)ccc3F)COCC[C@H]2CS1 [Comparator 4, reference compound]
- IC50 [4, 10]: 9 nM
- IC50 [8]: < 1 nM
- IC50 ([5]; microsomes): < 100 nM
- HLM CLint [6]: 8.3 mL/min/kg
- Pgp liability MDR1 Er [1]: 6.8
- IC50 [7]: 500 nM
- pKa [2, 9]: 8.2
- Aniline Structural Alert [3]: Yes

SMILES: C[C@H]1C[C@H]2CSC(N)=N[C@@]2(c2nc(NC(=O)c3coc(CC(F)(F)F)n3)cs2)CO1 [Example 91, N-{2-[(4aR,6S,8aR)-2-amino-6-methyl-4,4a,5,6-tetrahydropyrano[3,4-d][1,3]thiazin-8a(8H)-yl]-1,3-thiazol-4-yl}-2-(2,2,2-trifluoroethyl)-1,3-oxazole-4-carboxamide]
- IC50 [4, 11]: 215 nM

SMILES: C[C@H]1C[C@H]2CSC(N)=N[C@@]2(c2nc(NC(=O)C3CCC3)cs2)CO1 [Example 93, N-{2-[(4aR,6S,8aR)-2-amino-6-methyl-4,4a,5,6-tetrahydropyrano[3,4-d][1,3]thiazin-8a(8H)-yl]-1,3-thiazol-4-yl}cyclobutanecarboxamide]
- IC50 [4, 11]: 376 nM

SMILES: CC#CCOc1ccc(C(=O)Nc2csc([C@]34CO[C@@H](C)C[C@H]3CSC(N)=N4)n2)nc1 [Example 94, N-{2-[(4aR,6S,8aR)-2-amino-6-methyl-4,4a,5,6-tetrahydropyrano[3,4-d][1,3]thiazin-8a(8H)-yl]-1,3-thiazol-4-yl}-5-(but-2-yn-1-yloxy)pyridine-2-carboxamide]
- IC50 [4, 11]: 18 nM

SMILES: C[C@H]1C[C@H]2CSC(N)=N[C@@]2(c2nc(NC(=O)c3nc(C(F)F)co3)cs2)CO1 [Example 95, N-{2-[(4aR,6S,8aR)-2-amino-6-methyl-4,4a,5,6-tetrahydropyrano[3,4-d][1,3]thiazin-8a(8H)-yl]-1,3-thiazol-4-yl}-4-(difluoromethyl)-1,3-oxazole-2-carboxamide]
- IC50 [4, 11]: 75 nM

SMILES: Cc1cn(C(F)F)nc1C(=O)Nc1csc([C@]23CO[C@@H](C)C[C@H]2CSC(N)=N3)n1 [Example 96, N-{2-[(4aR,6S,8aR)-2-amino-6-methyl-4,4a,5,6-tetrahydropyrano[3,4-d][1,3]thiazin-8a(8H)-yl]-1,3-thiazol-4-yl}-1-(difluoromethyl)-4-methyl-1H-pyrazole-3-carboxamide]
- IC50 [4, 11]: 2 nM

SMILES: C[C@H]1C[C@H]2CSC(N)=N[C@@]2(c2nc(NC(=O)c3ncc(OC(F)F)cn3)cs2)CO1 [Example 97, N-{2-[(4aR,6S,8aR)-2-amino-6-methyl-4,4a,5,6-tetrahydropyrano[3,4-d][1,3]thiazin-8a(8H)-yl]-1,3-thiazol-4-yl}-5-(difluoromethoxy)pyrimidine-2-carboxamide]
- IC50 [4, 11]: 177 nM

SMILES: Cc1nc(OC(F)F)cnc1C(=O)Nc1csc([C@]23CO[C@@H](C)C[C@H]2CSC(N)=N3)n1 [Example 98, N-{2-[(4aR,6S,8aR)-2-amino-6-methyl-4,4a,5,6-tetrahydropyrano[3,4-d][1,3]thiazin-8a(8H)-yl]-1,3-thiazol-4-yl}-5-(difluoromethoxy)-3-methylpyrazine-2-carboxamide]
- IC50 [4, 11]: 33 nM

SMILES: C[C@H]1C[C@H]2CSC(N)=N[C@@]2(c2nc(NC(=O)c3ncc(OC(F)F)cc3Cl)cs2)CO1 [Example 99, N-{2-[(4aR,6S,8aR)-2-amino-6-methyl-4,4a,5,6-tetrahydropyrano[3,4-d][1,3]thiazin-8a(8H)-yl]-1,3-thiazol-4-yl}-3-chloro-5-(difluoromethoxy)pyridine-2-carboxamide]
- IC50 [4, 11]: 25 nM

SMILES: COCC(F)(F)c1cnc(C(=O)Nc2csc([C@]34CO[C@@H](C)C[C@H]3CSC(N)=N4)n2)cn1 [Example 100, N-{2-[(4aR,6S,8aR)-2-amino-6-methyl-4,4a,5,6-tetrahydropyrano[3,4-d][1,3]thiazin-8a(8H)-yl]-1,3-thiazol-4-yl}-5-(1,1-difluoro-2-methoxyethyl)pyrazine-2-carboxamide]
- IC50 [4, 11]: 220 nM

SMILES: C[C@H]1C[C@H]2CSC(N)=N[C@@]2(c2nc(NC(=O)c3ccc(OCC#N)cn3)cs2)CO1 [Example 101, N-{2-[(4aR,6S,8aR)-2-amino-6-methyl-4,4a,5,6-tetrahydropyrano[3,4-d][1,3]thiazin-8a(8H)-yl]-1,3-thiazol-4-yl}-5-(cyanomethoxy)pyridine-2-carboxamide]
- IC50 [4, 11]: 447 nM

SMILES: Cc1oc(CF)nc1C(=O)Nc1csc([C@]23CO[C@@H](C)C[C@H]2CSC(N)=N3)n1 [Example 102, N-{2-[(4aR,6S,8aR)-2-amino-6-methyl-4,4a,5,6-tetrahydropyrano[3,4-d][1,3]thiazin-8a(8H)-yl]-1,3-thiazol-4-yl}-2-(fluoromethyl)-5-methyl-1,3-oxazole-4-carboxamide]
- IC50 [4, 11]: 12 nM

SMILES: COCC(F)(F)c1ccc(C(=O)Nc2csc([C@]34CO[C@@H](C)C[C@H]3CSC(N)=N4)n2)nc1 [Example 103, N-{2-[(4aR,6S,8aR)-2-amino-6-methyl-4,4a,5,6-tetrahydropyrano[3,4-d][1,3]thiazin-8a(8H)-yl]-1,3-thiazol-4-yl}-5-(1,1-difluoro-2-methoxyethyl)pyridine-2-carboxamide]
- IC50 [4, 11]: 282 nM

SMILES: CCC(F)(F)Oc1ccc(C(=O)Nc2csc([C@]34CO[C@@H](C)C[C@H]3CSC(N)=N4)n2)nc1 [Example 104, N-{2-[(4aR,6S,8aR)-2-amino-6-methyl-4,4a,5,6-tetrahydropyrano[3,4-d][1,3]thiazin-8a(8H)-yl]-1,3-thiazol-4-yl}-5-(1,1-difluoropropoxy)pyridine-2-carboxamide]
- IC50 [4, 11]: 308 nM

SMILES: C[C@H]1C[C@H]2CSC(N)=N[C@@]2(c2nc(NC(=O)C34CC(C3)C4)cs2)CO1 [Example 105, N-{2-[(4aR,6S,8aR)-2-amino-6-methyl-4,4a,5,6-tetrahydropyrano[3,4-d][1,3]thiazin-8a(8H)-yl]-1,3-thiazol-4-yl}bicyclo[1.1.1]pentane-1-carboxamide]
- IC50 [4, 11]: 85 nM

SMILES: C[C@H]1C[C@H]2CSC(N)=N[C@@]2(c2nc(NC(=O)C3(C#N)CC3)cs2)CO1 [Example 106, N-{2-[(4aR,6S,8aR)-2-amino-6-methyl-4,4a,5,6-tetrahydropyrano[3,4-d][1,3]thiazin-8a(8H)-yl]-1,3-thiazol-4-yl}-1-cyanocyclopropanecarboxamide]
- IC50 [4, 11]: 348 nM

SMILES: C[C@H]1C[C@H]2CSC(N)=N[C@@]2(c2nc(NC(=O)C3CC3)cs2)CO1 [Example 107, N-{2-[(4aR,6S,8aR)-2-amino-6-methyl-4,4a,5,6-tetrahydropyrano[3,4-d][1,3]thiazin-8a(8H)-yl]-1,3-thiazol-4-yl}cyclopropanecarboxamide]
- IC50 [4, 11]: 475 nM

SMILES: C[C@H]1C[C@H]2CSC(N)=N[C@@]2(c2nc(NC(=O)C3(C#N)CCC3)cs2)CO1 [Example 108, N-{2-[(4aR,6S,8aR)-2-amino-6-methyl-4,4a,5,6-tetrahydropyrano[3,4-d][1,3]thiazin-8a(8H)-yl]-1,3-thiazol-4-yl}-1-cyanocyclobutanecarboxamide]
- IC50 [4, 11]: 94 nM

SMILES: C[C@H]1C[C@H]2CSC(N)=N[C@@]2(c2nc(NC(=O)C3(C)CCC3)cs2)CO1 [Example 109, N-{2-[(4aR,6S,8aR)-2-amino-6-methyl-4,4a,5,6-tetrahydropyrano[3,4-d][1,3]thiazin-8a(8H)-yl]-1,3-thiazol-4-yl}-1-methylcyclobutanecarboxamide]
- IC50 [4, 11]: 461 nM
